The text below walks through data of article PMC7717712, “The effects of cardiac drugs on human erythrocyte carbonic anhydrase I and II isozymes” (Journal of Enzyme Inhibition and Medicinal Chemistry, 2020).

pIC50, pKi: −log10 of the molar value. Entries after “also recorded” stand apart in the source; their conditions may differ. Where a name gives a salt, the structure may show the parent alone.

Assay [1] addresses T1, human carbonic anhydrase I (hCA I) (Homo sapiens, UniProt P00915).
T1 construct: from tissue
The experiment in a line: CO2 hydratase activity assay (Maren method), hCA I. It is filed as biochemical. The method, then:
(§1) Blood samples (25 ml) from healthy human volunteers were collected. They were centrifuged at 1000g for 20 min at 4 °C, and the supernatant was removed. The packed erythrocytes were washed three times with 0.9% NaCl and then were hemolyzed in cold water. The pH of the hemolysate was adjusted to 8.5 with the solid Tris base. The 25-ml hemolysate was applied to an affinity column containing y Sepharose 4B-ethylene diamine-4-isothiocyanato-benzenesulfonamide[14]. CA isozymes were then eluted with 0.1 M NaCl/25 mM Na2HPO4 (pH 6.3) and 0.1 M CH3COONa/0.5 M NaClO4 (pH 5.6), which recovered hCA I and II, respectively.
(§2) CA activity was measured by the Maren method based on the determination of the time required for the pH to decrease from 10.0 to 7.4 due to CO2 hydration. The assay solution was 0.5 M Na2CO3/0.1 M NaHCO3 (pH 10.0), and phenol red was added as the pH indicator. Carbon dioxide-hydratase activity was calculated in enzyme units (EU) with the following equation: t0 – tc/tc, where t0 and tc are the times for the pH change of the nonenzymatic and the enzymatic reactions, respectively.
(§3) The drugs were triturated in a porcelain mortar pestle. Stock solutions of both drugs were prepared in dimethyl sulfoxide (DMSO). Different concentrations of the drugs were added to the enzyme activity determination medium with a total volume of 4.2 ml. The duration (in seconds) of the colour change from red to yellow in solution was measured in a 10-ml glass tube with a diameter of 1 cm. Control cuvette activity in the absence of the inhibitor was set at 100%. All compounds were tested in triplicate at each concentration used. For each inhibitor, an activity %–[inhibitor] graph was drawn (data not shown).

The target of assay [2] is T2, human carbonic anhydrase II (hCA II) (Homo sapiens, UniProt P00918).
T2 construct: from tissue
The experiment in a line: CO2 hydratase activity assay (Maren method), hCA II. It is filed as biochemical. The protocol: as §1, §2, §3

The target in assay [3] is T1, human carbonic anhydrase I (hCA I). The experiment in a line: Esterase activity assay (4-nitrophenyl-acetate), hCA I. It is filed as biochemical. The method, then:
(§4) Blood samples (25 ml) from healthy human volunteers were collected. They were centrifuged at 1000g for 20 min at 4 °C, and the supernatant was removed. The packed erythrocytes were washed three times with 0.9% NaCl and then were hemolyzed in cold water. The pH of the hemolysate was adjusted to 8.5 with the solid Tris base. The 25-ml hemolysate was applied to an affinity column containing y Sepharose 4B-ethylene diamine-4-isothiocyanato-benzenesulfonamide[14].
(§5) The inhibitory effects of the drugs on enzyme activities were tested under in vitro conditions.

Assay [4] deals with T2, human carbonic anhydrase II (hCA II). The assay is described as follows: Esterase activity assay (4-nitrophenyl-acetate), hCA II. It is filed as biochemical. The method, then:
as §4, §5

The test system of assay [5] is CA-I levels / atherosclerosis. Also noted: method as in PMID 31354482. The following applies: cited from earlier work.
Setting [6] is: hydratase method, enzyme purified from human erythrocytes, read-out: IC50 (hydratase) hCA I.
[7] abbreviates: hydratase method, enzyme purified from human erythrocytes, read-out: IC50 (hydratase) hCA II.
Where [8] appears, read: esterase method, 4-nitrophenyl-acetate, 348 nm, 25 °C, read-out: IC50 (esterase) hCA I.
Where [9] appears, read: esterase method, 4-nitrophenyl-acetate, 348 nm, 25 °C, read-out: IC50 (esterase) hCA II.

T1 sequence (P00915 whole entry): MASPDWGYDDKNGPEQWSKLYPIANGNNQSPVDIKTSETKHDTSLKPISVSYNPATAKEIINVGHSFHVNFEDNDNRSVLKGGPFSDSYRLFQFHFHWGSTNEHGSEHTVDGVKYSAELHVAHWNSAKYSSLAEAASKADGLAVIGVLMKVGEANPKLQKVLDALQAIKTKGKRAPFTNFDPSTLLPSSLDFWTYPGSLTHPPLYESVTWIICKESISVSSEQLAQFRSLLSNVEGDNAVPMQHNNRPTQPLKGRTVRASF

Broadly, the pIC50 is the IC50 on a negative log10 scale, so that one unit is a factor of ten. Turning to `CN1CCc2nc(C(=O)N[C@@H]3C[C@@H](C(=O)N(C)C)CC[C@@H]3NC(=O)C(=O)Nc3ccc(Cl)cn3)sc2C1` [Edoxaban], the pIC50 in assay [1] (setting [6]) is 4.03; in assay [2] (setting [7]), 4.17; in assay [3] (setting [8]), 4.34; in assay [4] (setting [9]) it was 4.47.
As to `COc1cc2c(cc1OC)CC(=O)N(CCCN(C)C[C@H]1Cc3cc(OC)c(OC)cc31)CC2` [Ivabradine], the values for the pIC50 in assay [3] (setting [8]) and in assay [4] (setting [9]) were 3.97 and 3.93, respectively.
For `COC(=O)[C@H](c1ccccc1Cl)N1CCc2sccc2C1` [Clopidogrel], the pIC50 was 3.60 in assay [1] (setting [6]), 3.44 in assay [2] (setting [7]), 4.03 in assay [3] (setting [8]) and 3.99 in assay [4] (setting [9]).
Take `CCN(CC)CC(=O)Nc1c(C)cccc1C` [Lidocaine HCl]: the pIC50 in assay [1] (setting [6]) was 4.71; in assay [2] (setting [7]), 5.70.
Turning to `O=C(NC[C@H]1CN(c2ccc(N3CCOCC3=O)cc2)C(=O)O1)c1ccc(Cl)s1` [Rivaroxaban], the negative-log IC50 (pIC50) in assay [1] (setting [6]) was 3.66; in assay [2] (setting [7]) it was 3.69; in assay [3] (setting [8]) it was 3.72; in assay [4] (setting [9]) it was 3.61.
As for `CCCSc1nc(N[C@@H]2C[C@H]2c2ccc(F)c(F)c2)c2nnn([C@@H]3C[C@H](OCCO)[C@@H](O)[C@H]3O)c2n1` [Ticagrelor], the pIC50 in assay [1] (setting [6]) is 3.77; in assay [2] (setting [7]) it was 3.71; in assay [3] (setting [8]), 4.27; in assay [4] (setting [9]), 4.28.
`CC(C)NCC(O)COc1ccc(COCCOC(C)C)cc1` (stereo not shown) [Bisoprolol hemifumarate]: the pIC50 was 3.97 in assay [1] (setting [6]), 3.66 in assay [2] (setting [7]), 3.81 in assay [3] (setting [8]) and 3.61 in assay [4] (setting [9]).
Turning to `CC(=O)/N=c1/sc(S(N)(=O)=O)nn1C` [methazolamide], the “CA-I levels / CA-I expression” value in assay [5] (animal atherosclerosis model) is given as “decreased CA-I levels; also recorded: suppresses CA-I expression”. Moreover, the atherosclerosis result in assay [5] is given as “significantly reduces atherosclerosis”.
Consider `C[C@H](CS)C(=O)N1CCC[C@H]1C(=O)O` [Captopril], for which the pIC50 in assay [1] (setting [6]) is 3.92; in assay [2] (setting [7]), 3.88; in assay [3] (setting [8]), 5.80; in assay [4] (setting [9]) it was 5.20.
Take `CC(=O)Oc1ccccc1C(=O)O` [Acetylsalicylic acid]: the pIC50 in assay [1] (setting [6]) is 3.60; in assay [3] (setting [8]), 4.37.
`CCCCCCOC(=O)NC(=N)c1ccc(NCc2nc3cc(C(=O)N(CCC(=O)OCC)c4ccccn4)ccc3n2C)cc1` [Dabigatran etexilate]: the pIC50 was 3.95 in assay [1] (setting [6]), 3.94 in assay [2] (setting [7]), 4.82 in assay [3] (setting [8]) and 4.82 in assay [4] (setting [9]).
For `O=[N+]([O-])OCC(CO[N+](=O)[O-])O[N+](=O)[O-]` [Glyceryl trinitrate], the values for the pIC50 in assay [1] and in assay [2] were 3.66 and 3.57, respectively.
Regarding `COc1ccc(-n2nc(C(N)=O)c3c2C(=O)N(c2ccc(N4CCCCC4=O)cc2)CC3)cc1` [Apixaban], the pIC50 in assay [1] (setting [6]) was 4.05; in assay [2] (setting [7]) it was 3.96; in assay [3] (setting [8]) it was 3.42; in assay [4] (setting [9]), 3.41.
For `CC(C)NCC(O)COc1cccc2ccccc12` (stereo not shown) [Propranolol], in assay [1] (setting [6]), the pIC50 was 5.75.
In the case of `COC(=O)C1=C(C)NC(C)=C(C(=O)OC(C)(C)CN(C)CCC(c2ccccc2)c2ccccc2)C1c1cccc([N+](=O)[O-])c1` (stereo not shown) [Lercanidipine hydrochloride], the pIC50 in assay [1] (setting [6]) was 3.70; in assay [2] (setting [7]) it was 3.80; in assay [3] (setting [8]) it was 3.53; in assay [4] (setting [9]) it was 3.37.
Take `CCOC(=O)C1=C(C)NC(C)=C(C(=O)OCC)C1c1ccccc1/C=C/C(=O)OC(C)(C)C` [Lacidipine]: the pIC50 in assay [1] (setting [6]) was 3.16; in assay [2] (setting [7]), 3.32; in assay [3] (setting [8]), 3.82; in assay [4] (setting [9]) it was 3.81.
Turning to `C[C@H]1O[C@@H](O[C@H]2[C@@H](O)C[C@H](O[C@H]3[C@@H](O)C[C@H](O[C@H]4CC[C@@]5(C)[C@H](CC[C@@H]6[C@@H]5C[C@@H](O)[C@]5(C)[C@@H](C7=CC(=O)OC7)CC[C@]65O)C4)O[C@@H]3C)O[C@@H]2C)C[C@H](O)[C@@H]1O` [Digoxin], the pIC50 in assay [1] (setting [6]) is 4.13; in assay [2] (setting [7]) it was 4.06; in assay [3] (setting [8]), 4.64; in assay [4] (setting [9]), 4.48.
On to `OC(CNCC(O)C1CCc2cc(F)ccc2O1)C1CCc2cc(F)ccc2O1` (stereo not shown) [Nebivolol hydrochloride], for which the pIC50 is 4.13 in assay [1] (setting [6]), 4.02 in assay [2] (setting [7]), 3.39 in assay [3] (setting [8]) and 3.39 in assay [4] (setting [9]).
`CC(=O)Oc1cc2c(s1)CCN(C(C(=O)C1CC1)c1ccccc1F)C2` (stereo not shown) [Prasugrel]: the pIC50 in assay [1] (setting [6]) is 3.81; in assay [2] (setting [7]), 3.69; in assay [3] (setting [8]), 3.48; in assay [4] (setting [9]), 3.37.
As to `O=[N+]([O-])O[C@@H]1CO[C@H]2[C@@H]1OC[C@@H]2O` [Isosorbide mononitrate], the pIC50 in assay [1] was 3.80; in assay [2], 3.80; in assay [3], 5.22; in assay [4], 5.26.
In the case of `CCOC(=O)[C@H](CCc1ccccc1)N[C@@H](C)C(=O)N1[C@H](C(=O)O)C[C@@H]2CCC[C@@H]21` [Ramipril], the pIC50 is 3.55 in assay [1] (setting [6]), 3.81 in assay [2] (setting [7]), 4.49 in assay [3] (setting [8]) and 4.42 in assay [4] (setting [9]).
As for `CCOc1nc2cccc(C(=O)OC(C)OC(=O)OC3CCCCC3)c2n1Cc1ccc(-c2ccccc2-c2nnn[nH]2)cc1` (stereo not shown) [Candesartan cilexetil], the pIC50 is 3.73 in assay [1] (setting [6]), 3.57 in assay [2] (setting [7]), 3.47 in assay [3] (setting [8]) and 3.75 in assay [4] (setting [9]).
For `CCCCC1=NC2(CCCC2)C(=O)N1Cc1ccc(-c2ccccc2-c2nnn[nH]2)cc1` [Irbesartan], the pIC50 in assay [1] (setting [6]) is 3.63; in assay [2] (setting [7]), 3.62; in assay [3] (setting [8]) it was 3.46; in assay [4] (setting [9]), 3.47.
Broadly, the pKi is the Ki on a negative log10 scale, so that one unit is a factor of ten. Take `CCCNCC(O)COc1ccccc1C(=O)CCc1ccccc1` (stereo not shown) [Propafenone]: the pIC50 in assay [1] (setting [6]) was 3.64; in assay [2] (setting [7]), 3.63; in assay [3] (setting [8]), 5.55; in assay [4] (setting [9]), 5.52. The “Inhibition type, hCA I” value in assay [3] (Lineweaver–Burk plot) was “non-competitive”. For the same compound, the pKi in assay [3] (from Lineweaver–Burk plot) was 5.62; in assay [4] (from Lineweaver–Burk plot) it was 5.53. In addition, in assay [4] (Lineweaver–Burk plot), the “Inhibition type, hCA II” value is listed as “non-competitive”.
Consider `COc1ccc(CN2CCNCC2)c(OC)c1OC` [Trimetazidine dihydrochloride], for which the pIC50 is 3.71 in assay [1] (setting [6]), 3.82 in assay [2] (setting [7]), 3.95 in assay [3] (setting [8]) and 3.95 in assay [4] (setting [9]).
Regarding `COc1cc2nc(N3CCN(C(=O)C4COc5ccccc5O4)CC3)nc(N)c2cc1OC` (stereo not shown) [Doxazosin mesylate], the pIC50 in assay [1] (setting [6]) was 3.64; in assay [2] (setting [7]), 3.67; in assay [3] (setting [8]), 3.52; in assay [4] (setting [9]), 3.38.
As for `COc1ccccc1OCCNCC(O)COc1cccc2[nH]c3ccccc3c12` (stereo not shown) [Carvedilol], the pIC50 in assay [1] (setting [6]) is 4.21; in assay [2] (setting [7]) it was 4.10; in assay [3] (setting [8]), 4.69; in assay [4] (setting [9]), 4.33.
On to `COCCc1ccc(OCC(O)CNC(C)C)cc1` (stereo not shown) [Metoprolol succinate], for which the pIC50 was 3.40 in assay [1] (setting [6]), 3.77 in assay [2] (setting [7]), 3.50 in assay [3] (setting [8]) and 3.48 in assay [4] (setting [9]).
On to `COc1ccccc1OCC(O)CN1CCN(CC(=O)Nc2c(C)cccc2C)CC1` (stereo not shown) [Ranolazine], for which the pIC50 in assay [1] (setting [6]) was 3.30; in assay [2] (setting [7]), 3.26; in assay [3] (setting [8]), 3.22; in assay [4] (setting [9]), 3.19.
`CCCCc1oc2ccccc2c1C(=O)c1cc(I)c(OCCN(CC)CC)c(I)c1` [Amiodorane hydrochloride]: the pIC50 was 3.41 in assay [1] (setting [6]), 3.39 in assay [2] (setting [7]), 5.07 in assay [3] (setting [8]) and 4.91 in assay [4] (setting [9]).
Turning to `COc1ccc([C@@H]2Sc3ccccc3N(CCN(C)C)C(=O)[C@@H]2OC(C)=O)cc1` [Diltiazem], the pIC50 was 3.20 in assay [1] (setting [6]), 3.32 in assay [2] (setting [7]), 3.63 in assay [3] (setting [8]) and 3.49 in assay [4] (setting [9]).
